This data set in a line: Serum phosphate in rats. It counts as in vivo, Sprague Dawley rats. The settings on record: daily dosing 50 mg/kg/day oral gavage, at 24 hour or 1 week. How it is done:
FGFR1-ECD.339-Fc binds to the mitogenic FGFs with 10 to 100-fold higher affinity than to FGF-23. […] The potential biological impact of this relatively weak FGFR1-ECD.339-Fc/FGF-23 binding was investigated in rats following four weekly doses of FGFR1-ECD.339-Fc at a dose range of 10-200 mg/kg/qwk.
In the first experiment, Sprague Dawley rats (Charles River Labs; N=5/group) were dosed with vehicle, 10, 50 or 200 mg/kg/qwk of FGFR1-ECD.339-Fc for four weekly doses and plasma concentrations of FGFR1-ECD.339-Fc were determined throughout the study by an ELISA based detection method.
In the second experiment, Sprague Dawley rats (Charles River Labs; N=5/group) were administered the FGFR kinase inhibitor PD173074 (Chemdea, Ridgewood, N.J.; 50 mg/kg/day) or vehicle control by oral gavage for 7 days; or were administered FGFR1-ECD.339-Fc (200 mg/kg) or appropriate vehicle weekly by intravenous administration. Blood samples were collected at the time points indicated and serum phosphate was determined at 24 and 168 hours post-initiation of dosing (Idexx laboratories, Westbrook, Mass.).

Take `CCN(CC)CCCCNc1ncc2cc(-c3cc(OC)cc(OC)c3)c(NC(=O)NC(C)(C)C)nc2n1` [PD173043, reference compound]: the plasma phosphate levels result is given as “significantly elevated”.

For the origin of these results see US20130136740A1, “METHODS OF TREATING CANCER” (priority 2011, published 2013).
